{
  "source": "patent US10874631B2",
  "about": "“Altertoxin II as a selective inhibitor of Ewing family of tumor cells” (priority 2016, dated 2020)",
  "system": "Ewing sarcoma cells",
  "assay": "Panel of 5 pediatric cancer cell lines, selective cytotoxicity",
  "format": "cell-based",
  "settings": "5 types of solid pediatric cancers",
  "data": [
    {"smiles": "O=C1C[C@H](O)[C@@H]2c3c(ccc(O)c31)-c1ccc(O)c3c1[C@@]2(O)CCC3=O", "note": "[Altertoxin I, altertoxin I]", "values": [
      {"measurement": "selective cytotoxic activity against Ewing sarcoma cells", "value": "did not show selective cytotoxic activity"}
    ]}
  ]
}
